Calls of active or inactive are those of the source. The calls are words filed in the database; no cut-off is given here.
Experiments:
[1] = Antitumor activity against […] cells xenografted in KM mouse assessed as liver weight at 240 mg/kg, ig administered every day for 10 days measured post last dose (reference value: 1.57 +/- 0.3 g); assay type: functional; settings: time 10 day
[2] = biological target: Endoplasmic reticulum chaperone BiP (Homo sapiens) (UniProt P11021); test: Binding affinity to 78 kDa glucose-regulated protein in human A549 cells by LC-MS/MS analysis; assay type: cell-based
Sequence of Endoplasmic reticulum chaperone BiP (Homo sapiens) (P11021 whole entry): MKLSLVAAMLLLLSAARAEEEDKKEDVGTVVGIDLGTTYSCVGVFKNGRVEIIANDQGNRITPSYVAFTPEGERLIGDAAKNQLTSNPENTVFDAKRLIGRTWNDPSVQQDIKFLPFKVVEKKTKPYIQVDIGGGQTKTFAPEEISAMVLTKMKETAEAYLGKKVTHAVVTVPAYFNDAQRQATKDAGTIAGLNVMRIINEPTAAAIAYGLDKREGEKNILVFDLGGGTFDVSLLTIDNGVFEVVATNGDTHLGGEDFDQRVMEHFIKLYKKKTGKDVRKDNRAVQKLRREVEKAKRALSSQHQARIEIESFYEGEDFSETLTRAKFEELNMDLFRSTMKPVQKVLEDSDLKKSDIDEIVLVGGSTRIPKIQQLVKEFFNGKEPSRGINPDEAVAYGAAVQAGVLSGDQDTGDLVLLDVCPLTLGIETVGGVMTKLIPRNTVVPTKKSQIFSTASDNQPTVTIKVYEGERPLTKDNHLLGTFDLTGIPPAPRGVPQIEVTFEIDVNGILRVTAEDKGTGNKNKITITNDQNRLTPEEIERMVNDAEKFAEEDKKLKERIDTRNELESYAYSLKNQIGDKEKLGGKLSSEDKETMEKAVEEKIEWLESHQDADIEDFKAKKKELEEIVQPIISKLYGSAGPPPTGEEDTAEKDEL

[3] = Toxicity in […] cells xenografted KM mouse assessed as survival rate at 80 mg/kg, ig administered every day for 10 days relative to control; assay type: organism-based; settings: in vivo, po, time 10 day
[4] = Toxicity in […] lung cancer cells xenografted BALB/c mouse assessed as survival rate at 27 mg/kg, ig administered every day for 10 days (reference value: 100%); assay type: organism-based; settings: in vivo, po, time 10 day
[5] = Toxicity in […] lung cancer cells xenografted BALB/c mouse assessed as survival rate at 240 mg/kg, ig administered every day for 10 days (reference value: 100%); assay type: organism-based; settings: in vivo, po, time 10 day
[6] = Toxicity in […] cells xenografted KM mouse assessed as survival rate at 27 mg/kg, ig administered every day for 10 days relative to control; assay type: organism-based; settings: in vivo, po, time 10 day
[7] = Antitumor activity against […] cancer cells xenografted in BALB/c mouse assessed as tumor growth inhibition at 240 mg/kg, ig administered every day for 10 days relative to control; assay type: functional; settings: Lewis lung carcinoma, po, 240 h, time 10 day, read-out: TGI
[8] = biological target: Heat shock 70 kDa protein 1A/1B (Homo sapiens) (UniProt P0DMV8+P0DMV9); test: Binding affinity to heat shock 70 kDa protein 1A/1B in human A549 cells by LC-MS/MS analysis; assay type: cell-based
Sequence of Heat shock 70 kDa protein 1A/1B (Homo sapiens) (P0DMV8 whole entry, looked up): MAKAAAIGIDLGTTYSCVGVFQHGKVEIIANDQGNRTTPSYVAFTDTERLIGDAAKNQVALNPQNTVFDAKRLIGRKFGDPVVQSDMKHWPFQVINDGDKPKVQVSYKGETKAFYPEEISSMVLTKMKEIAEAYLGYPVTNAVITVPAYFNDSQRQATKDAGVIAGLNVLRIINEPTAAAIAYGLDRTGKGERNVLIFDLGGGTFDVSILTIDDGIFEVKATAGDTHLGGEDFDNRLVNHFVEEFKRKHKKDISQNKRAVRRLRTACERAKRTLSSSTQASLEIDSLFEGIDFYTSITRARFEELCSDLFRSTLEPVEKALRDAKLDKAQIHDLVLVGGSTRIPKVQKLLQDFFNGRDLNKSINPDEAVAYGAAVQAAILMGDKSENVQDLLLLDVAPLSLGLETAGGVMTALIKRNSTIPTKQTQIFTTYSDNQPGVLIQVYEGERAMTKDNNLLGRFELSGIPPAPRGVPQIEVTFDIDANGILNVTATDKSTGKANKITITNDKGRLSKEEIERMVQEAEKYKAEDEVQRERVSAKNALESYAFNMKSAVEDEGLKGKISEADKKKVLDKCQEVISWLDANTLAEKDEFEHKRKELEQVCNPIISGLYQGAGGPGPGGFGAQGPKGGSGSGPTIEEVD
Sequence of Heat shock 70 kDa protein 1A/1B (Homo sapiens) (P0DMV9 whole entry, looked up): as the sequence (P0DMV8 whole entry, looked up) above

[9] = Antitumor activity against […] cells xenografted in KM mouse assessed as tumor weight at 240 mg/kg, ig administered every day for 10 days (reference value: 0.55 +/- 0.57 g); assay type: functional; settings: time 10 day
[10] = Antitumor activity against […] cells xenografted in KM mouse assessed as tumor weight at 27 mg/kg, ig administered every day for 10 days (reference value: 0.55 +/- 0.57 g); assay type: functional; settings: time 10 day
[11] = Antitumor activity against […] cells xenografted in KM mouse assessed as tumor growth inhibition at 27 mg/kg, ig administered every day for 10 days relative to control; assay type: functional; settings: H22, po, 240 h, time 10 day, read-out: TGI
[12] = Antitumor activity against […] cancer cells xenografted in BALB/c mouse assessed as tumor growth inhibition at 27 mg/kg, ig administered every day for 10 days relative to control; assay type: functional; settings: Lewis lung carcinoma, po, 240 h, time 10 day, read-out: TGI
[13] = Antitumor activity against […] cancer cells xenografted in BALB/c mouse assessed as tumor weight at 240 mg/kg, ig administered every day for 10 days (reference value: 1.68 +/- 0.78 g); assay type: functional, Lewis lung carcinoma; settings: time 10 day
[14] = Antitumor activity against […] cells xenografted in KM mouse assessed as tumor growth inhibition at 240 mg/kg, ig administered every day for 10 days relative to control; assay type: functional; settings: H22, po, 240 h, time 10 day, read-out: TGI
[15] = system: HepG2; test: Antiproliferative activity against human HepG2 cells assessed as inhibition of cell growth at 12.5 ug/ml measured after 48 hrs by real-time cell analysis relative to control; assay type: functional; settings: read-out: GI
[16] = Antitumor activity against […] cells xenografted in KM mouse assessed as tumor growth inhibition at 80 mg/kg, ig administered every day for 10 days relative to control; assay type: functional; settings: H22, po, 240 h, time 10 day, read-out: TGI
[17] = Antitumor activity against […] cancer cells xenografted in BALB/c mouse assessed as tumor weight at 80 mg/kg, ig administered every day for 10 days (reference value: 1.68 +/- 0.78 g); assay type: functional, Lewis lung carcinoma; settings: time 10 day
[18] = biological target: Glyceraldehyde-3-phosphate dehydrogenase (Homo sapiens) (UniProt P04406); test: Binding affinity to GAPDH in human A549 cells by LC-MS/MS analysis; assay type: cell-based
Sequence of Glyceraldehyde-3-phosphate dehydrogenase (Homo sapiens) (P04406 2-335 limits assumed): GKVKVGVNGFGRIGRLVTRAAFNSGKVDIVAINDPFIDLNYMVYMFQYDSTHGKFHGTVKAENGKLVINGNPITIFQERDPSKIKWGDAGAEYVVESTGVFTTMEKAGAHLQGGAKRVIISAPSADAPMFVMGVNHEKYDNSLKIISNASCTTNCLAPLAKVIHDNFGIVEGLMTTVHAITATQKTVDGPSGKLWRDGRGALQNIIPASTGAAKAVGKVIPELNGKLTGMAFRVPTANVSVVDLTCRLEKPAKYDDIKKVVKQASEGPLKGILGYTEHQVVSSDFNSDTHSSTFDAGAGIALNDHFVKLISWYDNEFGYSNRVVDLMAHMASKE

[19] = system: A549; test: Antiproliferative activity against human A549 cells assessed as inhibition of cell growth at 12.5 ug/ml measured after 48 hrs by real-time cell analysis relative to control; assay type: functional; settings: read-out: GI
[20] = biological target: T1, Delta(3,5)-Delta(2,4)-dienoyl-CoA isomerase, mitochondrial (Homo sapiens) (UniProt Q13011); test: Binding affinity to delta(3,5)-delta(2,4)-dienoyl-CoA isomerase, mitochondrial in human A549 cells by LC-MS/MS analysis; assay type: cell-based
T1 sequence (whole entry): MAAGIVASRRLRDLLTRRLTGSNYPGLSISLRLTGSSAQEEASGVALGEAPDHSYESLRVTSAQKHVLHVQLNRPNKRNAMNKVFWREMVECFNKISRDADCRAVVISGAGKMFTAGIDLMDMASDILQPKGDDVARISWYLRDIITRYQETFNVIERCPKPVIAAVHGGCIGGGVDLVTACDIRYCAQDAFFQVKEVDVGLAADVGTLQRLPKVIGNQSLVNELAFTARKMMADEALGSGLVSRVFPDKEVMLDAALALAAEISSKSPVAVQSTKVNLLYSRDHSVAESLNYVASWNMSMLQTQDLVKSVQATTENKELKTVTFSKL

[21] = biological target: Tropomyosin alpha-1 chain (Homo sapiens) (UniProt P09493); test: Binding affinity to tropomyosin alpha-1 chain isoform 1 in human A549 cells by LC-MS/MS analysis; assay type: cell-based
Sequence of Tropomyosin alpha-1 chain (Homo sapiens) (P09493 whole entry, canonical isoform): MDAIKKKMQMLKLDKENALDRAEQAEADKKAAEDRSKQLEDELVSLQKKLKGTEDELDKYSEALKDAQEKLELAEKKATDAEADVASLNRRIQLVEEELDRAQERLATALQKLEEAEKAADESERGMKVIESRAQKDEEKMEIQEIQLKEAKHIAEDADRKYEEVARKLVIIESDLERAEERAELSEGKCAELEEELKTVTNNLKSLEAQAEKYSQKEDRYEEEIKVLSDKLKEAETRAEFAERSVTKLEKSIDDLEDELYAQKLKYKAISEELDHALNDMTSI

[22] = biological target: Dihydropyrimidinase-related protein 2 (Homo sapiens) (UniProt Q16555); test: Binding affinity to dihydropyrimidinase-related protein 2 isoform 1 in human A549 cells by LC-MS/MS analysis; assay type: cell-based
[23] = biological target: Heat shock cognate 71 kDa protein (Homo sapiens) (UniProt P11142); test: Binding affinity to heat shock cognate 71 kDa protein isoform 1 in human A549 cells by LC-MS/MS analysis; assay type: cell-based
Sequence of Heat shock cognate 71 kDa protein (Homo sapiens) (P11142 2-646 limits assumed): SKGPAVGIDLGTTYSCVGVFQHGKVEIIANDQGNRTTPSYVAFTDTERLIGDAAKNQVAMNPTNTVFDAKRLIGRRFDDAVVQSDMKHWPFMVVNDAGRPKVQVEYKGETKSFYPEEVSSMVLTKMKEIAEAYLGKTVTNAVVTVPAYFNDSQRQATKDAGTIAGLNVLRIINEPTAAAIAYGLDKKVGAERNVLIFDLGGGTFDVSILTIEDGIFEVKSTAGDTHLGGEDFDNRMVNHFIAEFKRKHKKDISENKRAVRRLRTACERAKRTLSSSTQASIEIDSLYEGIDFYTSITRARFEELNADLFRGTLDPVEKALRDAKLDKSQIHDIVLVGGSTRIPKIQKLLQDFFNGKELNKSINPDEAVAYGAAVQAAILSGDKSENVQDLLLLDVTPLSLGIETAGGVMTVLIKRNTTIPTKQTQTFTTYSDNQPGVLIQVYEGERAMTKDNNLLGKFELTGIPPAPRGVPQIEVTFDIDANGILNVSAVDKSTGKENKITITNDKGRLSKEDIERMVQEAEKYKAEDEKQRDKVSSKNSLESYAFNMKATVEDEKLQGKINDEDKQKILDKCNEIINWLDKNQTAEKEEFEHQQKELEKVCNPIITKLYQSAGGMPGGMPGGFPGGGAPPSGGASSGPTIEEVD

[24] = Toxicity in […] lung cancer cells xenografted BALB/c mouse assessed as net weight at 80 mg/kg, ig administered every day for 10 days (reference value: 1.16 +/- 1.55 g); assay type: organism-based; settings: in vivo, po, 240 h, time 10 day
[25] = Antitumor activity against […] cells xenografted in KM mouse assessed as liver weight at 80 mg/kg, ig administered every day for 10 days measured post last dose (reference value: 1.57 +/- 0.3 g); assay type: functional; settings: time 10 day
[26] = Antitumor activity against […] cells xenografted in KM mouse assessed as tumor weight at 80 mg/kg, ig administered every day for 10 days (reference value: 0.55 +/- 0.57 g); assay type: functional; settings: time 10 day
[27] = Antitumor activity against […] cancer cells xenografted in BALB/c mouse assessed as lung weight at 27 mg/kg, ig administered every day for 10 days measured post last dose (reference value: 0.13 +/- 0.03 g); assay type: functional, Lewis lung carcinoma; settings: time 10 day
[28] = Toxicity in […] cells xenografted KM mouse assessed as net weight at 80 mg/kg, ig administered every day for 10 days (reference value: 9.45 +/- 4 g); assay type: organism-based; settings: in vivo, po, 240 h, time 10 day
[29] = Toxicity in […] lung cancer cells xenografted BALB/c mouse assessed as net weight at 240 mg/kg, ig administered every day for 10 days (reference value: 1.16 +/- 1.55 g); assay type: organism-based; settings: in vivo, po, 240 h, time 10 day
[30] = Antitumor activity against […] cancer cells xenografted in BALB/c mouse assessed as tumor growth inhibition at 80 mg/kg, ig administered every day for 10 days relative to control; assay type: functional; settings: Lewis lung carcinoma, po, 240 h, time 10 day, read-out: TGI

With `CC(C)[C@@H](C)/C=C/[C@@H](C)[C@H]1CC[C@H]2C3=CC=C4C[C@@H](O)CC[C@]4(C)[C@H]3CC[C@]12C` [ERGOSTEROL] the Activity [1] was 1.57 g, the Activity [2] was “Active” and the survival at 240 h [3] was 100%. For the same molecule, the survival at 240 h [4] was 100%, the survival at 240 h [5] was 100% and the survival at 240 h [6] was 100%. The inhibition in vivo at 240 mg/kg [7] was 44.6%, the Activity [8] was “Active” and the Activity [9] was 0.19 g. The Activity [10] was 0.42 g, the inhibition in vivo at 27 mg/kg [11] was 23.4% and the inhibition in vivo at 27 mg/kg [12] was 15.8%. It also gave an Activity [13] of 0.93 g, an inhibition in vivo at 240 mg/kg [14] of 64.4% and an inhibition of growth at 12.5 µg/mL [15] of 100%. For the same molecule, the inhibition in vivo at 80 mg/kg [16] was 41.1%, the Activity [17] was 1.21 g and the Activity [18] was “Active”. The inhibition of growth at 12.5 µg/mL [19] was 100%, the Activity [20] was “Active” and the Activity [21] was “Active”. The Activity [22] was “Active”, the Activity [23] was “Active” and the Activity [24] was -0.95 g. It also gave an Activity [25] of 1.87 g, an Activity [26] of 0.32 g and an Activity [27] of 0.12 g. The Activity [28] was 7.78 g, the Activity [29] was -0.61 g and the inhibition in vivo at 80 mg/kg [30] was 28.4%.
